Publication PMC9220408, “Enhanced Antibacterial Activity of Dermaseptin through Its Immobilization on Alginate Nanoparticles—Effects of Menthol and Lactic Acid on Its Potentialization” (Antibiotics, 2022)
Ends that are not written are not given here.

Columns and labels:
[1] = tested on: E. coli 184
Description: (§1) The minimum inhibitory concentration (MIC) of the aforementioned formulations was determined in triplicate in 96-well microtiter plates using the broth microdilution method. Fresh colonies of E. coli were sub-cultured in Mueller–Hinton broth (Sigma-Aldrich) and were grown at 37 °C overnight on a rotary shaker at 160 rpm. […] The plates were incubated for 24 h at 37 °C, and inhibition of growth was measured at 600 nm with a spectrophotometer ELx808^tm (BioTek, Winoosky, VT, USA).
The ability of these new formulations to resist the conditions of the gastrointestinal tract (GIT) environment was determined as previously described. […]
To this end, we used pepsin, a digestive enzyme from the stomach, and active at pH 3, trypsin and chymotrypsin, which are synthesized in the pancreas and secreted in the small intestine, active between pH 6 and pH 8.

[2] = tested on: IPEC-1 cells; test: Cytotoxicity assay (CCK8); conditions: 24 h, 37 °C, CCK8, % of non-treated cells
Description: The cytotoxicity assay was performed as previously reported. Briefly, human colon carcinoma (HT29) and porcine intestinal (IPEC-1) cells (Sigma-Aldrich) were cultivated in Dulbecco’s Modified Eagle Medium (DMEM, Gibco, Thermo Fisher, Waltham, MA, USA) in 96-well-tissue culture plates for 48–72 h at 37 °C, in atmosphere containing 5% CO2, until the formation of a continuous confluent cell culture on the bottom of each well. […] The required concentrations were prepared in DMEM without antibiotics and serum and were added to the HT29/IPEC-1 cells in the wells, after washing with the same medium. The treated cells were then incubated for 24 h at 37 °C, in atmosphere containing 5% CO2. To assess the cell viability of the treated HT29/IPEC-1 cells, CCK8 assay (Dojindo Molecular Technologies, Tokyo, Japan) was realized according to the supplier recommendations. An amount of 150 µL of DMEM containing 7.5 µL of CCK-8 reagents were added to each well, and cells were incubated for 2 h. Plates were read at 450 nm in a microplate reader spectrophotometer (Xenius, Safas, Monaco).

[3] = Size (DLS) and zeta potential; assay type: physicochemical; conditions: pH 6.3; Alg NPs 500 µg/mL, DRS-B2 40 µg/mL
Description: The concentration of Alg NPs has been set to 500 µg/mL in order to allow a good dispersion and avoid any aggregation or sedimentation that could interfere with the adsorption. […]

[4] = tested on: E. coli 184; assay type: cell-based, Escherichia coli; conditions: broth microdilution, Mueller-Hinton broth, 24 h, 37 °C, OD 600 nm, triplicate; MIC as lowest concentration of DRS-B2 peptide; colistin-resistant strain (mcr-1)
Description: (§2) The Escherichia coli (E. coli) strains used in this study included E. coli ATCC 8739 and E. coli 184, which is resistant to colistin. […] E. coli strains were grown at 37 °C in Brain Heart Infusion (BHI) medium (Sigma-Aldrich, St. Louis, MA, USA).
as §1

[5] = tested on: E. coli ATCC 8739; assay type: cell-based, Escherichia coli; conditions: broth microdilution, Mueller-Hinton broth, 24 h, 37 °C, OD 600 nm, triplicate; MIC as lowest concentration of DRS-B2 peptide; colistin-sensitive strain
Description: as §2, §1

[6] = tested on: CHO (Chinese Hamster Ovary) cells; conditions: DRS-B2 at 39.7 µg/mL (10 µM); cited from earlier work
[7] = tested on: MCF-7 (breast cancer) cells; conditions: MCF-7, inhibition of thymidine incorporation; cited from earlier work
Source text: Of note, though many peptides endowed with biological functions, such as inhibitory activities, could be hemolytic, their combination with nanoparticles frequently allows them to discard this adverse trait. Charpentier et al. focused on the cytotoxicity of dermaseptin B3 and B4 on mammalian cells. These authors evaluated dermaseptin B3 and B4 abilities to inhibit thymidine incorporation into transformed human MCF-7 (breast cancer) cells. The results obtained unveiled 50% cytotoxicity when DRS-B3 was used at 27.8 µg/mL (10 µM). However, Galanth et al. reported that wh ...

Row | Substance | MICs of DRS-B2, Treatment with Pepsin ([1]; 30 min at pH 3 with pepsin (15 U/mL) and then 2 h at pH 6, 20 mM PBS, 39 °C at 140 rpm) [µg/mL] | MICs of DRS-B2, Treatment with Digestive Enzymes ([1]; 30 min at pH 3 with pepsin (15 U/mL) and then 2 h at pH 6 with trypsin (40 U/µL) + chymotrypsin (5 U/mL), 20 mM PBS, 39 °C at 140 rpm) [µg/mL] | MICs of DRS-B2, Treatment with pH Variation Only ([1]; incubation 30 min at pH 3 and then 2 h at pH 6, 20 mM PBS, 39 °C at 140 rpm, no enzymes) [µg/mL] | MICs of DRS-B2, Without Treatment ([1]; no physical or enzymatic treatment) [µg/mL] | percentage of survival of IPEC-1 cell line ([2]; DRS-B2 at 30 µg/mL (alone or adsorbed on Alg NPs)) [%] | percentage of survival of IPEC-1 cell line ([2]; DRS-B2 at 125 µg/mL (alone or adsorbed on Alg NPs)) [%] | Zeta Potential (ζ) [3] | MIC E. coli 184 [4] [µg/mL] | MIC E. coli ATCC8739 [5] [µg/mL] | toxic effect on CHO cells (in words) [6] | concentration giving 50% cytotoxicity [7] [ng/mL]
1 | GLWSKIKEVGKEAAKAAAKAAGKAALGAVSEAV-NH2 [DRS-B2, Dermaseptin B2] | ≥10 | ≥10 | 10 | 7.5 | 87 | 68 | +23 mV | 7.5 | 3.75 | not any toxic effect | 
2 | dermaseptin B3 [DRS-B3] |  |  |  |  |  |  |  |  |  |  | 27800
